IC50 data for 25 compounds are collected here from patent US6239130A, “Phosphodiesterase 4-inhibiting diazepinoindolones” (Warner-Lambert Company, priority 1997, dated 2001).

pIC50: −log10 of the molar value.

The test system of the experiment is PDE4 enzyme of human origin. Description: PDE4-inhibiting activity on an enzyme preparation obtained from the U937 cell line. In kind it is biochemical. As to the method:
In the case of the PDE4 enzymes, this value is compared with that of rolipram, a specific PDE4 inhibitor. […] Measurement of the enzyme activity of the different types of PDE, and especially of the PDE4 enzymes, is then carried out according to a method adapted from W. J. Thompson, ibidem.
Take `Cc1cc(Br)c2nc(C)n(C3N=C(c4ccccc4)c4cc([N+](=O)[O-])cc5c4N(CC5)C3=O)c(=O)c2c1` (stereo not shown) [Example 26, 3-(8-Bromo-2,6-dimethyl-4-oxo-4H-quinazolin-3-yl)-9-nitro-1-phenyl-6,7-dihydro-3H-[1,4]diazepino-[6,7,1-hi]indol-4-one]: the pIC50 (in general, the negative decadic logarithm of the IC50, by convention in mol/L) is 4.04.

For the compound `Cc1nc2ccccc2c(=O)n1[C@@H]1N=C(c2ccccc2)c2cc(N)cc3c2N(CC3)C1=O` [Example 28, (3S)-9-Amino-3-(2-methyl-4oxo-4H-quinazolin-3-yl)-1-phenyl-6,7-dihydro-3H-[1,4]diazepino[6,7,1-hi]indol-4-one], the negative logarithm of the IC50 (pIC50) is 8.30.

The compound `COC(=O)c1ccc2c(=O)n(C3N=C(c4ccccc4)c4cc(N)cc5c4N(CC5)C3=O)c(C)nc2c1` (stereo not shown) [Example 28A, Methyl 3-(9-amino-4-oxo-1-phenyl-3,4,6,7-tetrahydro-[1,4]diazepino[6,7,1-hi]indol-3-yl)-2-methyl-4-oxo-3,4-dihydroquinazoline-7-carboxylate] had a pIC50 of 8.30.

Regarding `COC(=O)c1ccc2c(=O)n(C3N=C(c4ccccc4)c4cc(N)cc5c4N(CC5)C3=O)c(C)nc2c1` (stereo not shown) [Example 28B], the pIC50 was 8.52.

In turn, `COC(=O)c1ccc2c(=O)n(C3N=C(c4ccccc4)c4cc(N)cc5c4N(CC5)C3=O)c(C)nc2c1` (stereo not shown) [Example 28C] had a negative-log IC50 (pIC50) of 7.15.

Compound `Cc1nc2cc(C(=O)O)ccc2c(=O)n1C1N=C(c2ccccc2)c2cc(N)cc3c2N(CC3)C1=O` (stereo not shown) [Example 28D, 3-(9-Amino-4oxo-1-phenyl-3,4,6,7-tetrahydro[1,4]diazepino[6,7,1-hi]indol-3-yl)-2-methyl-4-oxo-3,4-dihydroquinazoline-7-carboxylic acid] showed a pIC50 of 8.05.

Compound `Cc1nc2ccccc2c(=O)n1C1N=C(c2ccccc2)c2cc(N)cc3c2N(CC3)C1=O` (stereo not shown) [Example 29, 9-Amino-3-(2-methyl-4-oxo-4H-quinazolin-3-yl)-1-phenyl-6,7-dihydro-3H-[1,4]diazepino[6,7,1-hi]indol-4-one] gave a negative-log IC50 (pIC50) of 7.89.

With `Cc1cccc2nc(C)n(C3N=C(c4ccccc4)c4cc(N)cc5c4N(CC5)C3=O)c(=O)c12` (stereo not shown) [Example 30, 9-Amino-3-(2,5-dimethyl-4-oxo-4H-quinazolin-3-yl)-1-phenyl-6,7-dihydro-3H-[1,4]diazepino[6,7,1-hi]indol-4-one], the negative logarithm of the IC50 (pIC50) is 8.10.

For `Cc1ccc2nc(C)n(C3N=C(c4ccccc4)c4cc(N)cc5c4N(CC5)C3=O)c(=O)c2c1` (stereo not shown) [Example 31, 9-Amino-3-(2,6dimethyl-4-oxo-4H-quinazolin-^3-yl)-1-phenyl-6,7-dihydro-3H-[1,4]diazepino[6,7,1-hi]indol-4-one], the negative logarithm of the IC50 (pIC50) was 7.06.

In turn, `Cc1cccc2c(=O)n(C3N=C(c4ccccc4)c4cc(N)cc5c4N(CC5)C3=O)c(C)nc12` (stereo not shown) [Example 32, 9-Amino-3-(2,8-dimethyl-4-oxo-4H-quinazolin-3-yl)-l1-phenyl-6,7-dihydro-3H-[1,4]diazepino[6,7,1-hi]indole-4-one] gave a pIC50 of 7.26.

`Cc1cc(C)c2nc(C)n(C3N=C(c4ccccc4)c4cc(N)cc5c4N(CC5)C3=O)c(=O)c2c1` (stereo not shown) [Example 33, 9-Amino-3-(2,6,8-trimethyl-4-oxo-4H-quinazolin-3-yl)-1-phenyl-6,7-dihydro-3H-[1,4]diazepino[6,7,1-hi]indol-4-one] gave a pIC50 of 6.81.

For `Cc1nc2cnccc2c(=O)n1C1N=C(c2ccccc2)c2cc(N)cc3c2N(CC3)C1=O` (stereo not shown) [Example 34, 9-Amino-3-(2-methyl-4-oxo-4H-pyrido[3,4-d]pyrimidin-3-yl)-1-phenyl-6,7-dihydro-3H-[1,4]diazepino[6,7,1-hi]indol-4-one], the negative logarithm of the IC50 (pIC50) was 7.38.

In turn, `Cc1nc2cccc(Cl)c2c(=O)n1C1N=C(c2ccccc2)c2cc(N)cc3c2N(CC3)C1=O` (stereo not shown) [Example 34B, 9-Amino-3-(5-chloro-2-methyl-4-oxo-4H-quinazolin-3-yl)-1-phenyl-6,7-dihydro-3H-[1,4]diazepino[6,7,1-hi]indol-4-one] had a pIC50 of 8.52.

Turning to `Cc1cc2c3c(c1)C(c1ccccc1)=NC(n1c(C)nc4cc(C(=O)N[C@H](C(=O)O)C(C)C)ccc4c1=O)C(=O)N3CC2` (stereo partly shown) [Example 35, N-(2-methyl-3-(9-methyl-4-oxo-1-phenyl-3,4,6,7-tetrahydro[1,4]diazepino[6,7,1-hi]indol-3-yl)-4-oxo-3,4-dihydroquinazoline-7-carbonyl)valine], the pIC50 is 6.97.

`Cc1cc2c3c(c1)C(c1ccccc1)=NC(n1c(C)nc4cc(C(=O)N[C@@H](Cc5ccc(O)cc5)C(=O)O)ccc4c1=O)C(=O)N3CC2` (stereo partly shown) [Example 35A, N-(2-Methyl-3-(9-methyl-4-oxo-1-phenyl-3,4,6,7-tetrahydro[1,4]diazepino[6,7,1-hi]indol-3-yl)-4-oxo-3,4-dihydroquinazoline-7-carboxyl)tyrosine] gave a pIC50 of 7.06.

Compound `Cc1cc2c3c(c1)C(c1ccccc1)=NC(n1c(C)nc4cc(C(=O)N[C@@H](C)C(=O)O)ccc4c1=O)C(=O)N3CC2` (stereo partly shown) [Example 35B] had a pIC50 of 6.72.

As to `Cc1cc2c3c(c1)C(c1ccccc1)=NC(n1c(C)nc4cc(C(=O)N[C@@H](Cc5ccccc5)C(=O)O)ccc4c1=O)C(=O)N3CC2` (stereo partly shown) [Example 35C, N-(2-Methyl-3-(9-methyl-4-oxo-1-phenyl-3,4,6,7-tetrahydrol[1,4]diazepino[6,7,1-hi]indol-3-yl)-4-oxo-3,4-dihydroquinazoline-7-carboxyl)phenylalanine], the pIC50 was 6.95.

In turn, `Cc1cc2c3c(c1)C(c1ccccc1)=NC(n1c(C)nc4cc(C(=O)NCC(=O)O)ccc4c1=O)C(=O)N3CC2` (stereo not shown) [Example 35D, N-(2-Methyl-3-(9-methyl-4-oxo-1-phenyl-3,4,6,7-tetrahydro[1,4]diazepino[6,7,1-hi]indol-3-yl)-4-oxo-3,4-dihydroquinazoline-7-carboxyl)glycine] gave a negative-log IC50 (pIC50) of 7.19.

`Cc1cc2c3c(c1)C(c1ccccc1)=NC(n1c(C)nc4cc(C(=O)N[C@@H](CC(C)C)C(=O)O)ccc4c1=O)C(=O)N3CC2` (stereo partly shown) [Example 35E, N-(2-Methyl-3-(9-methyl-4-oxo-1-phenyl-3,4,6,7-tetrahydro[1,4]diazepino[6,7,1-hi]indol-3-yl)-4-oxo-3,4-dihydroquinazoline-7-carboxyl)leucine] had a pIC50 of 7.09.

The compound `Cc1cc2c3c(c1)C(c1ccccc1)=NC(n1c(C)nc4cc(C(=O)N[C@@H](CC(=O)O)C(=O)O)ccc4c1=O)C(=O)N3CC2` (stereo partly shown) [Example 35F, N-(2-Methyl-3-(9-methyl-4-oxo-1-phenyl-3,4,6,7-tetrahydro[1,4]diazepino[6,7,1-hi]indol-3-yl)-4-oxo-3,4-dihydroquinazoline-7-carboxyl)aspartic acid] showed a negative logarithm of the IC50 (pIC50) of 6.26.

Compound `Cc1cc2c3c(c1)C(c1ccccc1)=NC(n1c(C)nc4cc(C(=O)N5CCC[C@H]5C(=O)O)ccc4c1=O)C(=O)N3CC2` (stereo partly shown) [Example 35G, N-(2-Methyl-3-(9-methyl-4-oxo-1-phenyl-3,4,6,7-tetrahydro[1,4]diazepino[6,7,1-hi]indol-3-yl)-4-oxo-3,4-dihydroquinazoline-7-carboxyl)proline] had a pIC50 of 6.54.

For the compound `Cc1cc2c3c(c1)C(c1ccccc1)=NC(n1c(C)nc4cc(C(=O)N[C@@H](CCC(=O)O)C(=O)O)ccc4c1=O)C(=O)N3CC2` (stereo partly shown) [Example 35H, N-(2-Methyl-3-(9-methyl-4-oxo-1-phenyl-3,4,6,7-tetrahydro[1,4]diazepino[6,7,1-hi]indol-3-yl)-4-oxo-3,4-dihydroquinazoline-7-carboxyl)glutamic acid], the pIC50 was 6.66.

`Cc1cc2c3c(c1)C(c1ccccc1)=NC(n1c(C)nc4cc(C(=O)N[C@@H](CCCCN)C(=O)O)ccc4c1=O)C(=O)N3CC2` (stereo partly shown) [Example 35I] had a negative logarithm of the IC50 (pIC50) of 6.92.

Turning to `CCOC(=O)[C@H](Cc1ccccc1)NC(=O)c1ccc2c(=O)n(C3N=C(c4ccccc4)c4cc(C)cc5c4N(CC5)C3=O)c(C)nc2c1` (stereo partly shown) [Example 36, Ethyl 2-{[2-methyl-3-(9-methyl-4-oxo-1-phenyl-3,4,6,7-tetrahydro[1,4]diazepino[6,7,1-hi]indol-3-yl)-4-oxo-3,4-dihydroquinazolin0e-7-carbonyl]amino}-3-phenyl-(L)-propionate], the negative logarithm of the IC50 (pIC50) was 6.51.

The compound `COc1ccc(C2CNC(=O)C2)cc1OC1CCCC1` (stereo not shown) [rolipram, reference compound] gave a pIC50 of 6.10.
